Assay results taken from patent US12193441B2, “Antimicrobial mixtures comprising at least one hydroxyphenone derivative” (SYMRISE AG, priority 2018, dated 2025).
Where two headings read alike, the source gives them in different places.

Columns and labels:
A. brasiliensis = assay: Minimum Inhibitory Concentration (MIC) and Kull synergy index against A. brasiliensis; type: cell-based; parameters: unit not given here
Description: To calculate the synergism between compounds of formula (I) and other antimicrobial actives, the Kull equation^1 2 was used SI=(Cmixture×PA)/CA+(Cmixture×PB)/CB (I) • where • SI is the Synergy Index according to Kull^1), 2) • CA is the […] for substance A • CB is the cell count for substance B • Cmixture is the cell count for the mixture of substances A and B • PA is the proportion of the substance A in the mixture • PB is the proportion of the substance B in the mixture. ^1 Kull, F. C., Eismann, P. C., Sylvestrowicz, H. D., and R. L. Mayer (1961). Mixtures of Quaternary Ammonium Compounds and Long-chain Fatty Acids as Antifungal Agents. Applied Microbiology 9, 538-541.^2 Steinberg, D. C. (2000). Measuring Synergy. Cosmetics & Toiletries 115 (11), 59-62.
Antimicrobil activity was evaluated by determining the Minimum Inhibitory Concentration (MIC) representing the lowest concentration of a chemical which prevents visible growth of a bacterium.
The MIC values were determined by preparing solutions of the chemical in vitro at increasing concentrations, incubating the solutions with the separate batches of cultured bacteria, and measuring the results using agar dilution or broth microdilution. Results have been graded into susceptible (often called sensitive), intermediate, or resistant to a particular antibiotic by using a cutoff point. Cut off points are agreed upon values, published in guidelines of a reference body, such as the U.S. Clinical and Laboratory Standards Institute (CLSI), the British Society for Antimicrobial Chemotherapy (BSAC) or the European Committee on Antimicrobial Susceptibility Testing (EUCAST).

[1] = chemical in vitro assay; constituent of Tagetes mendocina; cited from earlier work
[2] = test system: subcutaneous inflammation; conditions: administered intraperitoneally; cited from earlier work
[3] = test system: mold growth on moist alfalfa hay; conditions: preservation of moist alfalfa hay; cited from earlier work
[4] = active taken alone, A. brasiliensis

Molecule	MIC (Comparison: MIC values for the actives taken alone) (A. brasiliensis; [4])	further results
CCCCCCCC(=O)NCC(=O)O [Capryloyl glycine]	60.000	–
Cc1cc(CC(C)CC(C)(C)C)n(O)c(=O)c1.NCCO (stereo not shown) [Piroctone oleamine, Octopyrox, 1-hydroxy-4-methyl-6-(2,4,4-trimethylpentyl)-2-(1H)-pyridinone monoethanolamine salt]	64	–
OCc1ccccc1 [Benzyl alcohol]	5000	–
Oc1cc(Cl)ccc1Oc1ccc(Cl)cc1Cl [Triclosan, 2,4,4′-trichloro-2′-hydroxy-diphenyl ether]	32	–
CCCCCCCCCC(=O)OCC(O)CO (stereo not shown) [Glyceryl caprate]	2.000	–
CC(=O)c1ccc(O)cc1 [4-Hydroxyacetophenone]	2500	antioxidant activity [1]: one of the active constituents; reduction of subcutaneous inflammation [2]: one of the active compounds reducing subcutaneous inflammation; prevention of mold growth [3]: not prevent mold growth
C=CCCCCCCCCC(=O)NCC(=O)O [Undecenoyl glycin]	5.000	–
O=[N+]([O-])C(Br)(CO)CO [Bronopol, 2-bromo-2-nitro-1,3-propanediol]	2000	–
OCCCO [1,3-Propanediol]	200.000	–
Glceryl caprylate	2.000	–
C/C=C/C=C/C(=O)[O-].[K+] [Potassium sorbate]	–	MIC (Comparison: MIC values for the actives taken alone) (A. brasiliensis): 5000
CCCCNC(=O)OCC#CI [IPBC, 3-Iodo-2-propynylbutylcarbamate, 3-Iodo-2-propynylbutylcarbamate]	1	–
C=CCCCCCCCCC(=O)O [Undecylenic acid, Undec-10-enoic acid, Undec-10-enoic acid]	500	–
Sorbitan caprylate	4000	–
CCCCCCCCCCCC(=O)N[C@@H](CCCN=C(N)N)C(=O)OCC.Cl [Ethyl lauroyl arginate HCl]	2.000	–
O=C(O)CN(CCN(CC(=O)O)CC(=O)O)CC(=O)O [Ethylene diamine tetra acetate (EDTA), Ethylene diamine tetra acetate]	40.000	–
CC(C)(C)C(=O)C(Oc1ccc(Cl)cc1)n1ccnc1 (stereo not shown) [Climbazol, Crinipan, Climbazol]	64	–
O=C([O-])c1ccccc1.[Na+] [Sodium benzoate]	10.000	–
Cc1cc(O)ccc1C(C)C [4-Isopropyl-3-methylphenol]	250	–
